According to patent publication US6951881B2, “(1-substituted-indol-3-yl) alkylidenehydrazinecarboximidamide derivatives as 5-hydroxytryptamine-6 ligands” (Wyeth, priority 2002, dated 2005):

The molecules below were run against T1, human cloned 5-HT6 receptors (Homo sapiens, UniProt P50406). Details: [3H]-LSD 3.0 nM, Hela cell membranes; read-out: 5-HT6 Binding Ki.
T1 construct: expressed in transfected cells; host or cells: HeLa cells
Assay type: binding
Experimental: This operation is repeated.
The reaction is allowed to proceed in the dark for 120 min at room temperature, at which time, the bound ligand-receptor complex is filtered off on a 96 well unifilter with a Packard Filtermate® 196 Harvester. The bound complex caught on the filter disk is allowed to air dry and the radioactivity is measured in a Packard TopCount® equipped with six photomultiplier detectors, after the addition of 40.0 μl Microscint®-20 scintillant to each shallow well. The unifilter plate is heat-sealed and counted in a PackardTopCount® with a tritium efficiency of 31.0%.
Specific binding to the 5-HT6 receptor is defined as the total radioactivity bound less the amount bound in the presence of 10.0 μM unlabeled methiothepin. Binding in the presence of varying concentrations of test compound is expressed as a percentage of specific binding in the absence of test compound. The results are plotted as logit % bound versus log concentration of test compound. Nonlinear regression analysis of data points with a computer assisted program Prism® yields both the IC50 and the Ki values of test compounds with 95% confidence limits.
The amount of displacement by the test compound is given in percent (%) inhibition and is derived from the following equation: [formula] where B0 is the amount of CPM bound in the presence of the testing agent. NSB represents the CPM bound in the presence of a saturating concentration of a displacer and TB represents the total amount of CPM bound at zero (0) concentration of test compound.
Alternatively, a linear regression line of decline of data points is plotted, from which the IC50 value can be read off and the Ki value determined by solving the following equation: [formula] where L is the concentration of the radioactive ligand used and KD is the dissociation constant of the ligand for the receptor, both expressed in nM.

T1 sequence (P50406 whole entry): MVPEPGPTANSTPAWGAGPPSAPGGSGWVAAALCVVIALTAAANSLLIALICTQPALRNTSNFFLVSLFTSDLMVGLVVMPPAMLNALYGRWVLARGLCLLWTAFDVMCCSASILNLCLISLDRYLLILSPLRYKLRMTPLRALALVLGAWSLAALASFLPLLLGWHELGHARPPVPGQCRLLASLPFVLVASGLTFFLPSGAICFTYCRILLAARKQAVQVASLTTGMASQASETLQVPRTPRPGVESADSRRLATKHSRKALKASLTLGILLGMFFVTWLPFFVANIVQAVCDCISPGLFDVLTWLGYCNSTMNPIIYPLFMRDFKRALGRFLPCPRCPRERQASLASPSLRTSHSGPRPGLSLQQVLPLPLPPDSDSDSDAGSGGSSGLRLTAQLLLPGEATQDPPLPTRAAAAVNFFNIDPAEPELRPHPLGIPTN

Point of comparison: `CC(=NNC(=N)N)c1c(-c2ccccc2)n(C)c2ccccc12` [Example 86, 2-[1-(1-methyl-2-phenyl-1H-indol-3-yl)-ethylidene]hydrazinecarboximidamide], Ki 19 nM. Against it:
- CN(N=Cc1c(-c2ccccc2)n(C)c2ccccc12)C1=NCCN1 [Example 90, N-(4,5-dihydro-1H-imidazol-2-yl)-N′-[(1-methyl-2-phenyl-1H-indol-3-yl)-methylene]-N-methylhydrazine] — 1.7-fold lower, 11 nM

Same assay, conditions: test compound dose 10 nM; displacement of [3H]-LSD

In the case of `CC(=NNC(=N)N)c1c(-c2ccc(F)cc2)[nH]c2ccccc12` [Example 74, 2-{1-[2-(4-fluoro-phenyl)-1H-indol-3-yl]-ethylidene}hydrazinecarboximidamide], the inhibition at 0.01 µM is reported as 38.3%.

Same assay, conditions: test compound dose 1000 nM; displacement of [3H]-LSD

Point of comparison: `CC(=NNC(=N)N)c1c(-c2ccc(Cl)cc2)n(Cc2ccccc2)c2ccccc12` [Example 93, 2-{1-[1-benzyl-2-(4-chloro-phenyl)-1H-indol-3-yl]-ethylidene}hydrazinecarboximidamide], inhibition at 1 µM 22.3%. Against it:
- CN(N=C(CCc1ccccc1)c1c(-c2ccccc2)[nH]c2ccccc12)C1=NCCN1 [Example 69, N-(4,5-dihydro-1H-imidazol-2-yl)-N-methyl-N′-[3-phenyl-1-(2-phenyl-1H-indol-3-yl)-propylidene]hydrazine] — higher, 23%
- CN(N=C(CCc1ccccc1)c1c(-c2ccc(Cl)cc2)[nH]c2ccccc12)C1=NCCN1 [Example 70, N′-{1-[2-(4-chloro-phenyl)-1H-indol-3-yl]-3-phenyl-propylidene}-N-(4,5-dihydro-1H-imidazol-2-yl)-N-methylhydrazine] — higher, 33.9%
- CN(N=C(C=Cc1ccccc1)c1c(-c2ccccc2)[nH]c2ccccc12)C1=NCCN1 [Example 71, N-(4,5-dihydro-1H-imidazol-2-yl)-N-methyl-N′-[3-phenyl-1-(2-phenyl-1H-indol-3-yl)-allylidene]hydrazine] — higher, 30%
- CN(N=C(C=Cc1ccccc1)c1c(-c2ccc(Cl)cc2)[nH]c2ccccc12)C1=NCCN1 [Example 72, N′-{1-[2-(4-chloro-phenyl)-1H-indol-3-yl]-3-phenyl-allylidene}-N-(4,5-dihydro-1H-imidazol-2-yl)-N-methylhydrazine] — higher, 40.9%
- CN(N=C(Cc1ccc(Cl)cc1)c1c(-c2ccc(Cl)cc2)[nH]c2ccccc12)C1=NCCN1 [Example 73, N′-{2-(4-chloro-phenyl)-1-[2-(4-chloro-phenyl)-1H-indol-3-yl]-ethylidene}-N-(4,5-dihydro-1H-imidazol-2-yl)-N-methylhydrazine] — higher, 37.5%
- CC(=NNC(=N)N)c1c(-c2ccc(F)c(F)c2)[nH]c2ccccc12 [Example 75, 2-{1-[2-(3,4-difluoro-phenyl)-1H-indol-3-yl]-ethylidene}hydrazinecarboximidamide] — higher, 73.2%
- Cn1c(-c2ccccc2)c(C(=NNC(=N)N)C2CCCCC2)c2ccccc21 [Example 79, 2-[cyclohexyl-(1-methyl-2-phenyl-1H-indol-3-yl)-methylene]hydrazinecarboximidamide] — higher, 31.3%
- N=C(N)NN=C(c1c(-c2ccccc2)n(-c2ccccc2)c2ccccc12)C1CCCCC1 [Example 80, 2-[cyclohexyl-(1,2-diphenyl-1H-indol-3-yl)-methylene]hydrazinecarboximidamide] — lower, 8.7%
- CC(C)C(=NNC(=N)N)c1c(-c2ccccc2)n(C)c2ccccc12 [Example 81, 2-[1-(1-methyl-2-phenyl-1H-indol-3-yl)-2-methyl-propylidene]hydrazinecarboximidamide] — higher, 43.2%
- CC(C)C(=NNC(=N)N)c1c(-c2ccccc2)n(-c2ccccc2)c2ccccc12 [Example 82, 2-[1-(1,2-diphenyl-1H-indol-3-yl)-2-methyl-propylidene]hydrazinecarboximidamide] — lower, 21.5%
- Cn1c(-c2ccccc2)c(C(Cc2ccccc2)=NNC(=N)N)c2ccccc21 [Example 83, 2-[1-(1-methyl-2-phenyl-1H-indol-3-yl)-2-phenyl-ethylidene]hydrazinecarboximidamide] — higher, 31%
- N=C(N)NN=C(Cc1ccccc1)c1c(-c2ccccc2)n(-c2ccccc2)c2ccccc12 [Example 84, 2-[1-(1,2-diphenyl-1H-indol-3-yl)-2-phenyl-ethylidene]hydrazinecarboximidamide] — higher, 22.9%
- CC(=NNC(=N)N)c1c(-c2ccccc2)n(C)c2ccccc12 [Example 86, 2-[1-(1-methyl-2-phenyl-1H-indol-3-yl)-ethylidene]hydrazinecarboximidamide] — higher, 99.4%
- CC(=NNC(=N)N)c1c(-c2ccccc2)n(-c2ccccc2)c2ccccc12 [Example 87, 2-[1-(1,2-diphenyl-1H-indol-3-yl)-ethylidene]hydrazinecarboximidamide] — higher, 31.3%
- Cn1c(-c2ccccc2)c(C=NNC(=N)N)c2ccccc21 [Example 89, 2-[(1-methyl-2-phenyl-1H-indol-3-yl)-methylene]hydrazinecarboximidamide] — higher, 70.6%
- CN(N=Cc1c(-c2ccccc2)n(C)c2ccccc12)C1=NCCN1 [Example 90, N-(4,5-dihydro-1H-imidazol-2-yl)-N′-[(1-methyl-2-phenyl-1H-indol-3-yl)-methylene]-N-methylhydrazine] — higher, 99.9%
- N=C(N)NN=Cc1c(-c2ccccc2)n(-c2ccccc2)c2ccccc12 [Example 91, 2-[(1,2-diphenyl-1H-indol-3-yl)-methylene]hydrazinecarboximidamide] — higher, 24%
- CN(N=Cc1c(-c2ccccc2)n(-c2ccccc2)c2ccccc12)C1=NCCN1 [Example 92, N-(4,5-dihydro-1H-imidazol-2-yl)-N′-[(1,2-diphenyl-1H-indol-3-yl)-methylene]-N-methylhydrazine] — lower, 17.8%
- N=C(N)NN=Cc1c(-c2ccc(Cl)cc2)n(Cc2ccccc2)c2ccccc12 [Example 94, 2-{[1-benzyl-2-(4-chloro-phenyl)-1H-indol-3-yl]-methylene}hydrazinecarboximidamide] — lower, 19.7%
- N=C(N)NN=Cc1c(-c2ccc(Cl)cc2)n(Cc2ccccc2Cl)c2ccccc12 [Example 96, 2-{[1-(2-chloro-benzyl)-2-(4-chloro-phenyl)-1H-indol-3-yl]-methylene}hydrazinecarboximidamide] — lower, 15.6%
- Cc1ccc(Cn2c(-c3ccc(Cl)cc3)c(C=NNC(=N)N)c3ccccc32)cc1 [Example 98, 2-{[2-(4-chloro-phenyl)-1-(4-methyl-benzyl)-1H-indol-3-yl]-methylene}hydrazinecarboximidamide] — lower, 21.1%

Point of comparison: `CN(N=Cc1c(-c2ccc(Cl)cc2)n(Cc2ccccc2)c2ccccc12)C1=NCCN1` [Example 95, N-{[1-benzyl-2-(4-chloro-phenyl)-1H-indol-3-yl]-methylene}-N′-(4,5-dihydro-1H-imidazol-2-yl)-N-methylhydrazine], “% Inhibition” value 20.0%. Against it:
- CC(=NNC(=N)N)c1c(-c2ccccc2)n(CCc2ccccc2)c2ccccc12 [Example 78, 2-{[1-(2-Phenethyl)-2-phenyl-1H-indol-3-yl]ethylidene}hydrazine-carboximidamide] — higher, 84.2%
- CN(N=Cc1c(-c2ccc(Cl)cc2)n(Cc2ccccc2Cl)c2ccccc12)C1=NCCN1 [Example 97, N-{[1-(2-chloro-benzyl)-2-(4-chloro-phenyl)-1H-indol-3-yl]-methylene}-N′-(4,5-dihydro-1H-imidazol-2-yl)-N-methylhydrazine] — lower, 0.4%
- Cc1ccc(Cn2c(-c3ccc(Cl)cc3)c(C=NN(C)C3=NCCN3)c3ccccc32)cc1 [Example 99, N-{[2-(4-chloro-phenyl)-1-(4-methyl-benzyl)-1H-indol-3-yl]-methylene}-N′-(4,5-dihydro-1H-imidazol-2-yl)-N-methylhydrazine] — lower, 5.7%
